Measurements from PubChem BioAssay AID1259407 (Chemical Carcinogenesis Research Information System (CCRIS), 2018).
The source made the active and inactive calls. No rule for the calls is given here.

System: CCRIS mutagenicity, Ames/micronucleus/aberration tests
Assay: CCRIS mutagenicity studies

Cc1c2ccccc2c(C)c2c1ccc1ccccc12
mutagenic call (Test System: AMES SALMONELLA TYPHIMURIUM, Strain/Indicator: TA1535, Metabolic Activation: RAT, LIVER, S-9, AROCLOR 1254, Method: SPIRAL ASSAY): inactive; negative | mutagenic call (Test System: AMES SALMONELLA TYPHIMURIUM, Strain/Indicator: TA1535, Metabolic Activation: RAT, LIVER, S-9, AROCLOR 1254, Method: STANDARD PLATE): inactive; negative | mutagenic call (Test System: AMES SALMONELLA TYPHIMURIUM, Strain/Indicator: TA1537, Metabolic Activation: NONE, Method: SPIRAL ASSAY): active; positive | mutagenic call (Test System: AMES SALMONELLA TYPHIMURIUM, Strain/Indicator: TA1537, Metabolic Activation: NONE, Method: STANDARD PLATE): active; positive | mutagenic call (Test System: AMES SALMONELLA TYPHIMURIUM, Strain/Indicator: TA1537, Metabolic Activation: RAT, LIVER, S-9, AROCLOR 1254, Method: SPIRAL ASSAY): active; positive | mutagenic call (Test System: AMES SALMONELLA TYPHIMURIUM, Strain/Indicator: TA1537, Metabolic Activation: RAT, LIVER, S-9, AROCLOR 1254, Method: STANDARD PLATE): active; positive | mutagenic call (Test System: AMES SALMONELLA TYPHIMURIUM, Strain/Indicator: TA1537, Metabolic Activation: RAT, LIVER, S-9, KC500 OR PHENOBARBITAL, Method: LIQUID SUSPENSION): active; positive | mutagenic call (Test System: AMES SALMONELLA TYPHIMURIUM, Strain/Indicator: TA1538, Metabolic Activation: RAT, LIVER, S-9, AROCLOR 1254, Method: STANDARD PLATE): active; positive | mutagenic call (Test System: CHINESE HAMSTER OVARY, Strain/Indicator: CHO-K1-BH4 (HGPRT), Metabolic Activation: RAT, LIVER, S-9, AROCLOR, Method: SUSPENSION/PLATE): active; positive | mutagenic call (Test System: CHINESE HAMSTER V-79, Strain/Indicator: V-79/6-THIOGUANINE, Metabolic Activation: NONE, Method: STANDARD PLATE): inactive; negative | mutagenic call (Test System: CHINESE HAMSTER V-79, Strain/Indicator: V-79/6-THIOGUANINE, Metabolic Activation: RAT, HEPATOCYTES, BUTYLATED HYDROXYANISOLE, Method: STANDARD PLATE): active; positive | mutagenic call (Test System: CHINESE HAMSTER V-79, Strain/Indicator: V-79/6-THIOGUANINE, Metabolic Activation: RAT, HEPATOCYTES, Method: STANDARD PLATE): active; positive | mutagenic call (Test System: CHINESE HAMSTER V-79, Strain/Indicator: V-79/6-THIOGUANINE, Metabolic Activation: RAT, LIVER, S-9, PHENOBARBITAL, Method: STANDARD PLATE): active; positive | mutagenic call (Test System: CHINESE HAMSTER V-79, Strain/Indicator: V-79/8-AZAGUANINE, Metabolic Activation: CELL-MEDIATED, Method: STANDARD PLATE): active; positive | mutagenic call (Test System: CHINESE HAMSTER V-79, Strain/Indicator: V-79/OUABAIN, Metabolic Activation: NONE, Method: STANDARD PLATE): inactive; negative | mutagenic call (Test System: CHINESE HAMSTER V-79, Strain/Indicator: V-79/OUABAIN, Metabolic Activation: RAT, HEPATOCYTES, BUTYLATED HYDROXYANISOLE, Method: STANDARD PLATE): active; positive | mutagenic call (Test System: CHINESE HAMSTER V-79, Strain/Indicator: V-79/OUABAIN, Metabolic Activation: RAT, HEPATOCYTES, Method: STANDARD PLATE): active; positive | mutagenic call (Test System: E. COLI, Strain/Indicator: WP2 UVRA, Metabolic Activation: HAMSTER, LIVER, S-9, AROCLOR 1254, Method: STANDARD PLATE): inactive; negative | mutagenic call (Test System: E. COLI, Strain/Indicator: WP2 UVRA, Metabolic Activation: HAMSTER, LIVER, S-9, Method: STANDARD PLATE): inactive; negative | mutagenic call (Test System: E. COLI, Strain/Indicator: WP2 UVRA, Metabolic Activation: MOUSE, LIVER, S-9, AROCLOR 1254, Method: STANDARD PLATE): inactive; negative | mutagenic call (Test System: E. COLI, Strain/Indicator: WP2 UVRA, Metabolic Activation: MOUSE, LIVER, S-9, Method: STANDARD PLATE): inactive; negative | mutagenic call (Test System: E. COLI, Strain/Indicator: WP2 UVRA, Metabolic Activation: NONE, Method: STANDARD PLATE): inactive; negative | mutagenic call (Test System: E. COLI, Strain/Indicator: WP2 UVRA, Metabolic Activation: RAT, LIVER, S-9, AROCLOR 1254, Method: STANDARD PLATE): inactive; negative | mutagenic call (Test System: E. COLI, Strain/Indicator: WP2 UVRA, Metabolic Activation: RAT, LIVER, S-9, Method: STANDARD PLATE): inactive; negative | mutagenic call (Test System: MOUSE LYMPHOMA, Strain/Indicator: L5178Y (TK+/TK-), Metabolic Activation: NONE, Method: SUSPENSION/PLATE): inactive; negative | mutagenic call (Test System: MOUSE LYMPHOMA, Strain/Indicator: L5178Y (TK+/TK-), Metabolic Activation: RAT, LIVER, S-9, AROCLOR 1254, Method: SUSPENSION/PLATE): active; positive | mutagenic call (Test System: MOUSE SPLENIC LYMPHOCYTES, Strain/Indicator: C57BL/6 (TK+/-)/C57BL/6 (HPRT), Metabolic Activation: NONE, Method: IN VIVO/SUSPENSION/PLATE): active; positive | mutagenic call (Test System: UDS MONKEY HEPATOCYTES, Strain/Indicator: THY INCORP, Metabolic Activation: AROCLOR 1254, Method: AUTORADIOGRAPHY): active; positive | mutagenic call (Test System: UDS MONKEY HEPATOCYTES, Strain/Indicator: THY INCORP, Metabolic Activation: NONE, Method: AUTORADIOGRAPHY): active; positive | mutagenic call (Test System: UDS MOUSE EPIDERMIS IN VIVO/IN VITRO, Strain/Indicator: HOS:HR-1/THYMIDINE INCORPORATION, Metabolic Activation: NONE, Method: LIQUID SCINTILLATION): active; positive | mutagenic call (Test System: UDS RAT HEPATOCYTES, Strain/Indicator: BROMODEOXYURIDINE INCORP, Metabolic Activation: NONE, Method: FLOW CYTOMETRIC ANALYSIS): active; positive | mutagenic call (Test System: UDS RAT HEPATOCYTES, Strain/Indicator: THY INCORP, Metabolic Activation: NONE, Method: AUTORADIOGRAPHY): active; positive | mutagenic call (Test System: UDS RODENT HEPATOCYTES, Strain/Indicator: THY INCORP (NON-S-PHASE), Method: AUTORADIOGRAPHY): active; positive | mutagenic call (Test System: UDS RODENT PRIMARY CELLS, Strain/Indicator: THY INCORP (NON-S-PHASE), Metabolic Activation: NONE, Method: AUTORADIOGRAPHY): active; positive
